Data as given in patent US9359311B2, “Substituted aromatic oligomers” (NEUROSCIOS GMBH, priority 2011, dated 2016).
pIC50: −log10 of the molar value.

Tests used:
primary chicken neurons = test: Inhibition of Abeta 1-42 toxicity on primary chicken neurons (MTT); type: cell-based; design: key: No: no effect; +: minor positive effect on cell viability in the presence of aggregated Aβ 1-42; ++: medium positive effect on cell viability in the presence of aggregated Aβ 1-42; +++: strong positive effect on cell viability in the presence of aggregated Aβ 1-42
Method: One-day-old fertilized eggs are stored under appropriate conditions until start of breeding. On embryonic day 0 eggs are transferred to the breeding incubator and under turning, kept at 37.8° C. and 55% humidity until embryonic day eight. Neurons are prepared as follows: In short, embryos are transferred to a plastic dish, and decapitated. Both brain hemispheres are removed, collected and any loose tissue removed. Hemispheres are mechanically dissociated and 4.8×10^4 cells per well (96-well plates) are seeded in a volume of 160 μl.
Aβ1-42 (MW 4514.1) was obtained from American Peptide Company as a lyophilized powder. A stock solution of 340 μM Aβ1-42 was prepared in 50 mM Tris-Buffer, 150 mM NaCl, pH7.6 according to the manufacturer's instructions. After sonication, the stock solution is diluted 1:1 with the test compounds to obtain a concentration of 170, 17 and 1.7 μM. After aggregation at 4° C. for 48 h, the solutions are sonicated again prior to application to the cells. The final concentration of Aβ1-42 applied to the primary chicken neurons is 10 μM.
Aβ1-42 aggregated together with compound for 48 hrs was applied to chicken neurons at DIV4 (days in vitro) and analyzed at DIV10 (144 hrs) and all others were applied to chicken neurons at DIV6 and analysed at DIV10 (96 hrs).
Viability of cultures is determined by the MTT assay. The MTT assay allows for the measurement of the mitochondrial dehydrogenase activity which reduces yellow MTT to dark blue formazan crystals. Since this reaction is catalyzed in living cells only this assay is used for the determination of cell viability. MTT solution is added to each well in a final concentration of 0.5 mg/ml. After 2 hours the MTT containing medium is aspired. Cells are lysed in 3% SDS and the formazan crystals are dissolved in isopropanol/HCl. Optical density is measured with a plate-reader at wavelength 570 nm. Cell survival rate is expressed as a percentage of optical density (OD) relative to control cells not treated with Aβ or compound.

biotinylated Aβ1-42 = target: T1, biotinylated Aβ1-42 (Homo sapiens, UniProt P05067); test: Inhibition of Abeta oligomerisation (biotinylated Aβ1-42, neutravidin plate, streptavidin-HRP); type: biochemical; conditions: inhibition of Aβ1-42 aggregation, approximately 12 nM Aβ1-42, PBS pH 7.4, 2% DMSO, 30 min RT
T1 construct: To assure monomerisation of biotinylated Aβ1-42 (Anaspec #23523-0.5) the peptide was thoroughly monomerised; purchased Anaspec 23523-0.5
T1 sequence (P05067 672-713 limits assumed): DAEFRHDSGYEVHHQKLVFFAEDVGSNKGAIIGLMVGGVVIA

[1] = Conc. 0.1 μM, 10 μM Aβ1-42 aggregated together with compound for 48 h
[2] = Conc. 1 μM, 10 μM Aβ1-42 aggregated together with compound for 48 h
[3] = Conc. 10 μM, 10 μM Aβ1-42 aggregated together with compound for 48 h

Structure (SMILES)	Rescue of Abeta toxicity (MTT) (primary chicken neurons; [1])	Rescue of Abeta toxicity (MTT) (primary chicken neurons; [2])	Rescue of Abeta toxicity (MTT) (primary chicken neurons; [3])	pIC50 (biotinylated Aβ1-42)	Rescue of Abeta toxicity (MTT) (primary chicken neurons; Conc. 5 μM, 10 μM Aβ1-42)
O=C(O)c1ccc(-c2cc(CCO)c(-c3ccc(-c4sc(-c5ccc(C(=O)O)s5)cc4CCO)s3)s2)s1 [Example 5, 5-(5-{5-[5-(5-Carboxythiophen-2-yl)-3-(2-hydroxyethyl)thiophen-2-yl]thiophen-2-yl}-4-(2-hydroxyethyl)thiophen-2-yl)thiophene-2-carboxylic acid]	no	++	+	5.40	–
O=C(O)CCc1ccsc1-c1ccc(-c2sc(-c3ccc(-c4cc(CCC(=O)O)c(-c5ccc(-c6sccc6CCC(=O)O)s5)s4)s3)cc2CCC(=O)O)s1 [Example 62, 3-(2-{5-[3-(2-Carboxyethyl)-5-{5-[4-(2-carboxyethyl)-5-{5-[3-(2-carboxyethyl)thiophen-2-yl]thiophen-2-yl}thiophen-2-yl]thiophen-2-yl}thiophen-2-yl]thiophen-2-yl}thiophen-3-yl)propanoic acid]	++	+++	–	6.40	–
CS(=O)(=O)c1ccc(-c2cc(CC(=O)O)c(-c3ccc(-c4sc(-c5ccc(S(C)(=O)=O)cc5)cc4CC(=O)O)s3)s2)cc1 [Example 16, 2-(2-{5-[3-(Carboxymethyl)-5-(4-methanesulfonylphenyl)thiophen-2-yl]thiophen-2-yl}-5-(4-methanesulfonylphenyl)thiophen-3-yl)acetic acid]	–	+++	+++	5.30	–
O=C(O)Cc1cc(-c2ccc(-c3cc(CC(=O)O)c(-c4ccc(C(=O)O)s4)s3)s2)sc1-c1ccc(C(=O)O)s1 [Example 6, 5-[3-(Carboxymethyl)-5-{5-[4-(carboxymethyl)-5-(5-carboxythiophen-2-yl)thiophen-2-yl]thiophen-2-yl}thiophen-2-yl]thiophene-2-carboxylic acid]	++	+	+++	5.10	–
O=C(O)Cc1cc(-c2ccc(-c3ccc(C(=O)O)s3)s2)sc1-c1ccc(-c2sc(-c3ccc(-c4ccc(C(=O)O)s4)s3)cc2CC(=O)O)s1 [Example 18, 5-{5-[4-(Carboxymethyl)-5-{5-[3-(carboxymethyl)-5-[5-(5-carboxythiophen-2-yl)thiophen-2-yl]thiophen-2-yl]thiophen-2-yl}thiophen-2-yl]thiophen-2-yl}thiophene-2-carboxylic acid]	++	+	no	5.90	–
Nc1c(/N=N/c2ccc(-c3ccc(/N=N/c4cc(S(=O)(=O)O)c5ccccc5c4N)cc3)cc2)cc(S(=O)(=O)O)c2ccccc12 [Congo Red, reference compound]	–	–	–	5.80	++
O=C(O)Cc1ccccc1-c1ccc(-c2cc(CC(=O)O)c(-c3ccc(-c4sc(-c5ccc(-c6ccccc6CC(=O)O)s5)cc4CC(=O)O)s3)s2)s1 [Example 56, 2-(2-{5-[3-(Carboxymethyl)-5-{5-[2-(carboxymethyl)phenyl]thiophen-2-yl}thiophen-2-yl]thiophen-2-yl}-5-{5-[2-(carboxymethyl)phenyl]thiophen-2-yl}thiophen-3-yl)acetic acid]	+	+++	+++	5.50	–
O=C(O)Cc1cc(-c2ccccc2)sc1-c1ccc(-c2sc(-c3ccccc3)cc2CC(=O)O)s1 [Example 21, 2-(2-{5-[3-(Carboxymethyl)-5-phenylthiophen-2-yl]thiophen-2-yl}-5-phenylthiophen-3-yl)acetic acid]	no	++	no	5.60	–
